In the SangsterLogP compilation:

Assay: method code SF-AS, from DOI: 10.1021/bi00362a019, PMID: 3017413

NC(N)=N/N=C/c1ccc(Cl)c([N+](=O)[O-])c1 showed a logP of 0.53.

Compound NC(N)=N/N=C/c1ccccc1[N+](=O)[O-] has a logP of 0.53.

N=C(N)NN=Cc1ccc(-c2ccccc2)cc1 showed a logP of 1.49.

For N=C(N)NN=Cc1ccc(Cl)cc1, the logP was 0.96.

NC(N)=N/N=C/c1cccc([N+](=O)[O-])c1 showed a logP of 0.01.

In the case of COc1ccc(/C=N/N=C(N)N)cc1, the logP is reported as 0.29.

CCOc1ccc(/C=N/N=C(N)N)cc1 showed a logP of 0.24.

For NC(N)=N/N=C/c1ccc([N+](=O)[O-])cc1, the logP was 0.87.

Compound CCN(CC)c1ccc(C=NN=C(N)N)cc1 has a logP of 0.56.

CC(C)(C)Oc1ccc(/C=N/N=C(N)N)cc1 showed a logP of 1.38.

With NC(N)=N/N=C/c1ccc(Br)cc1 the logP was 1.3.

With NC(N)=N/N=C/c1ccc(Oc2ccccc2)cc1 the logP was 1.87.

CN(C)c1ccc(/C=N/N=C(N)N)cc1 showed a logP of 0.28.
